# Measured values taken from PubChem BioAssay AID1963837 (Molecular Pharmacology Branch, DTP, NCI, 2024).
# Tested on: 843126-344-R-J1-PDC complex spheroid viability
# Experiment: Anticancer human tumor 843126-344-R-J1-PDC patient-derived melanoma cell line growth inhibition [POLQ]
# Details: for IC50: curve of first compound; for viability, T/C: stronger effect = lower value
# Method in brief: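 Patient-derived tumour cells were co-cultured with HUVEC and mesenchymal stem cells as multicellular spheroids at 37 °C. They were treated with POLQ inhibitors (novobiocin, ART-558, RP6685) alone or combined with other agents. Top concentrations were at or near clinical Cmax (otherwise 10 microM; SN-38 at 1 microM), decreasing in half-log steps.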
# [1] = second compound 0.0316 µM, first compound 0.0316 µM
# [2] = second compound 0.0316 µM, first compound 0.1 µM
# [3] = second compound 0.0316 µM, first compound 0.316 µM
# [4] = second compound 0.0316 µM, first compound 1 µM
# [5] = second compound 0.1 µM, first compound 0.0316 µM
# [6] = second compound 0.1 µM, first compound 0.1 µM
# [7] = second compound 0.1 µM, first compound 0.316 µM
# [8] = second compound 0.1 µM, first compound 1 µM
# [9] = second compound 0.316 µM, first compound 0.0316 µM
# [10] = second compound 0.316 µM, first compound 0.1 µM
# [11] = second compound 0.316 µM, first compound 0.316 µM
# [12] = second compound 0.316 µM, first compound 1 µM
# [13] = second compound 1 µM, first compound 0.0316 µM
# [14] = second compound 1 µM, first compound 0.1 µM
# [15] = second compound 1 µM, first compound 0.316 µM
# [16] = second compound 1 µM, first compound 1 µM
# [17] = second compound 3.16 µM, first compound 0.0316 µM
# [18] = second compound 3.16 µM, first compound 0.1 µM
# [19] = second compound 3.16 µM, first compound 0.316 µM
# [20] = second compound 3.16 µM, first compound 1 µM
# [21] = second compound 10 µM, first compound 0.0316 µM
# [22] = second compound 10 µM, first compound 0.1 µM
# [23] = second compound 10 µM, first compound 0.316 µM
# [24] = second compound 10 µM, first compound 1 µM
# [25] = second compound 0.0316 µM, first compound 3.16 µM
# [26] = second compound 0.0316 µM, first compound 10 µM
# [27] = second compound 0.1 µM, first compound 3.16 µM
# [28] = second compound 0.1 µM, first compound 10 µM
# [29] = second compound 0.316 µM, first compound 3.16 µM
# [30] = second compound 0.316 µM, first compound 10 µM
# [31] = second compound 1 µM, first compound 3.16 µM
# [32] = second compound 1 µM, first compound 10 µM
# [33] = second compound 3.16 µM, first compound 3.16 µM
# [34] = second compound 3.16 µM, first compound 10 µM
# [35] = second compound 10 µM, first compound 3.16 µM
# [36] = second compound 10 µM, first compound 10 µM
# 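Wherever viability, T/C is given: spheroids exposed to drugs for seven days before readout.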
smiles,measurement,setting,value
CCc1c2c(nc3ccc(O)cc13)-c1cc3c(c(=O)n1C2)COC(=O)[C@]3(O)CC + Nc1ccc(C#CCN(C(=O)Cc2ncc(C(F)(F)F)cc2C(F)(F)F)c2ccc(F)cc2)nn1,IC50,second compound 0.0316 µM,> 1 µM
same,IC50,second compound 0.1 µM,> 1 µM
same,IC50,second compound 0.316 µM,> 1 µM
same,IC50,second compound 1 µM,> 1 µM
same,IC50,second compound 3.16 µM,> 1 µM
same,IC50,second compound 10 µM,> 1 µM
same,"viability, T/C","second compound 0.0316 µM, first compound 0.00316 µM",68.2%
same,"viability, T/C","second compound 0.0316 µM, first compound 0.01 µM",60%
same,"viability, T/C",[1],63.9%
same,"viability, T/C",[2],64.7%
same,"viability, T/C",[3],58.8%
same,"viability, T/C",[4],49.1%
same,"viability, T/C","second compound 0.1 µM, first compound 0.00316 µM",64.3%
same,"viability, T/C","second compound 0.1 µM, first compound 0.01 µM",47.4%
same,"viability, T/C",[5],59%
same,"viability, T/C",[6],65.8%
same,"viability, T/C",[7],65%
same,"viability, T/C",[8],47.9%
same,"viability, T/C","second compound 0.316 µM, first compound 0.00316 µM",69.5%
same,"viability, T/C","second compound 0.316 µM, first compound 0.01 µM",56.3%
same,"viability, T/C",[9],61.3%
same,"viability, T/C",[10],57.2%
same,"viability, T/C",[11],63.3%
same,"viability, T/C",[12],48.5%
same,"viability, T/C","second compound 1 µM, first compound 0.00316 µM",75.3%
same,"viability, T/C","second compound 1 µM, first compound 0.01 µM",46.9%
same,"viability, T/C",[13],61.3%
same,"viability, T/C",[14],62.8%
same,"viability, T/C",[15],66.5%
same,"viability, T/C",[16],46.3%
same,"viability, T/C","second compound 3.16 µM, first compound 0.00316 µM",70.3%
same,"viability, T/C","second compound 3.16 µM, first compound 0.01 µM",64.5%
same,"viability, T/C",[17],52.7%
same,"viability, T/C",[18],72.5%
same,"viability, T/C",[19],63.3%
same,"viability, T/C",[20],52.2%
same,"viability, T/C","second compound 10 µM, first compound 0.00316 µM",67.7%
same,"viability, T/C","second compound 10 µM, first compound 0.01 µM",55.2%
same,"viability, T/C",[21],54.6%
same,"viability, T/C",[22],69.8%
same,"viability, T/C",[23],65.4%
same,"viability, T/C",[24],41%
COc1cc(C2c3cc4c(cc3C(OC3OC5COC(C)OC5C(O)C3O)C3COC(=O)C23)OCO4)cc(OC)c1O (stereo unspecified) + Nc1ccc(C#CCN(C(=O)Cc2ncc(C(F)(F)F)cc2C(F)(F)F)c2ccc(F)cc2)nn1,IC50,second compound 0.0316 µM,> 10 µM
same,IC50,second compound 0.1 µM,> 10 µM
same,IC50,second compound 0.316 µM,> 10 µM
same,IC50,second compound 1 µM,> 10 µM
same,IC50,second compound 3.16 µM,7.6 µM
same,IC50,second compound 10 µM,6.29 µM
same,"viability, T/C",[1],82.4%
same,"viability, T/C",[2],78.3%
same,"viability, T/C",[3],94%
same,"viability, T/C",[4],89.7%
same,"viability, T/C",[25],58.3%
same,"viability, T/C",[26],49.5%
same,"viability, T/C",[5],97.1%
same,"viability, T/C",[6],77.8%
same,"viability, T/C",[7],92%
same,"viability, T/C",[8],94.3%
same,"viability, T/C",[27],73.4%
same,"viability, T/C",[28],51.4%
same,"viability, T/C",[9],91.8%
same,"viability, T/C",[10],104%
same,"viability, T/C",[11],99.1%
same,"viability, T/C",[12],78.9%
same,"viability, T/C",[29],70.1%
same,"viability, T/C",[30],49.5%
same,"viability, T/C",[13],96.1%
same,"viability, T/C",[14],83.6%
same,"viability, T/C",[15],80.5%
same,"viability, T/C",[16],71.6%
same,"viability, T/C",[31],64.3%
same,"viability, T/C",[32],53.5%
same,"viability, T/C",[17],88.3%
same,"viability, T/C",[18],77%
same,"viability, T/C",[19],89.9%
same,"viability, T/C",[20],75.2%
same,"viability, T/C",[33],68.6%
same,"viability, T/C",[34],44.3%
same,"viability, T/C",[21],81.8%
same,"viability, T/C",[22],96.5%
same,"viability, T/C",[23],78.5%
same,"viability, T/C",[24],75.4%
same,"viability, T/C",[35],61.7%
same,"viability, T/C",[36],42.3%
O=c1[nH]cc(F)c(=O)[nH]1 + Nc1ccc(C#CCN(C(=O)Cc2ncc(C(F)(F)F)cc2C(F)(F)F)c2ccc(F)cc2)nn1,IC50,second compound 0.0316 µM,> 10 µM
same,IC50,second compound 0.1 µM,> 10 µM
same,IC50,second compound 0.316 µM,> 10 µM
same,IC50,second compound 1 µM,> 10 µM
same,IC50,second compound 3.16 µM,> 10 µM
same,IC50,second compound 10 µM,> 10 µM
same,"viability, T/C",[1],101%
same,"viability, T/C",[2],94.7%
same,"viability, T/C",[3],92.9%
same,"viability, T/C",[4],92.9%
same,"viability, T/C",[25],95.4%
same,"viability, T/C",[26],85.5%
same,"viability, T/C",[5],103%
same,"viability, T/C",[6],110%
same,"viability, T/C",[7],103%
same,"viability, T/C",[8],89%
same,"viability, T/C",[27],82.4%
same,"viability, T/C",[28],93.4%
same,"viability, T/C",[9],92.4%
same,"viability, T/C",[10],109%
same,"viability, T/C",[11],101%
same,"viability, T/C",[12],101%
same,"viability, T/C",[29],111%
same,"viability, T/C",[30],92.6%
same,"viability, T/C",[13],110%
same,"viability, T/C",[14],107%
same,"viability, T/C",[15],108%
same,"viability, T/C",[16],89.5%
same,"viability, T/C",[31],94.3%
same,"viability, T/C",[32],90.6%
same,"viability, T/C",[17],107%
same,"viability, T/C",[18],87.3%
same,"viability, T/C",[19],82.8%
same,"viability, T/C",[20],82.3%
same,"viability, T/C",[33],80%
same,"viability, T/C",[34],82.4%
same,"viability, T/C",[21],81.9%
same,"viability, T/C",[22],86.2%
same,"viability, T/C",[23],84.6%
same,"viability, T/C",[24],81.9%
same,"viability, T/C",[35],88%
same,"viability, T/C",[36],76.7%
